Assay results as given in the supplement of paper PMC11208160.

Assay: recombinant barcode read abundance after kanamycin selection (control-corrected) (log10(CPM+1)); higher = more efficient recombination; sequences stand for … in AGTGCAGAGAAAATCGGCCAGTTTTCTCTGCCTGCAGTCCGCATGCCGT…AGATTTATGCAGCGGACTGCCTTTCTCCCAAAGTGATAAACCGGACAGTATCATGGACCGGTTTTCCCGGTAATCCGTATTTGCAAGGTTGGTTTCACT; site = the 11-nt target
How it was run: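 The screen was pooled in E. coli and paired targets with IS621 bridge RNA target-binding loops. Recombination efficiency is taken from barcode counts per million at recombinant junctions, averaged and adjusted against the control. Values, in the form log10(CPM+1), come from duplicate plating on chloramphenicol/ampicillin LB agar or on chloramphenicol/ampicillin/kanamycin with 0.1 mM IPTG.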
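Note: IS621 recombinase and bridge RNA in Escherichia coli cells.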

Point of comparison: “CGTGGTCCTTGGGTTCTAACCTGTTGCAT (site CGTGGTCCTAG)”, “recombinant barcode read abundance (log10)” value 0.398. Against it:
- CGTGAGACTTGGGTTCTAACCTGTTGCCT (site CGTGAGACTAG) — higher, 1.48
- CGTGAGACTTGGGTTCTAACCTGTTGCCT (site CGTTAGACTAG) — lower, 0.0487
- CGTGGAGCTTGGGTTCTAACCTGTTGCCA (site CGTCTAGCTTG) — lower, 0.136
- CGTGGAGCTTGGGTTCTAACCTGTTGCCA (site CGTGGAGCTTG) — higher, 0.836
- CGTGGTCCTTGGGTTCTAACCTGTTGCAT (site CGTGGTCCTAA) — within 0.2 log units, 0.414
- CGTGGTCCTTGGGTTCTAACCTGTTGCAT (site CGTGGTCCTAC) — higher, 0.809
- CGTGGTCCTTGGGTTCTAACCTGTTGCAT (site CGTGGTCCTAT) — higher, 1.25
- CGTGTAACTTGGGTTCTAACCTGTTGCTT (site CGAGCAACTAA) — lower, 0.0308
- CGTGTAACTTGGGTTCTAACCTGTTGCTT (site CGTGTAACTAA) — within 0.2 log units, 0.212
- CGTTATTCTTGGGTTCTAACCTGTTGCCT (site CGGAATTCTAG) — lower, 0.115
- CGTTATTCTTGGGTTCTAACCTGTTGCCT (site CGTTATTCTAG) — lower, 0.0118
- CGTTCACCTTGGGTTCTAACCTGTTGCAT (site ACAAATACTCC) — lower, 0.0056
- CGTTCACCTTGGGTTCTAACCTGTTGCAT (site CGTTCACCTAT) — within 0.2 log units, 0.499
- CGTTCCTCTTGGGTTCTAACCTGTTGCCT (site CATTCCTCTAG) — lower, 0.0798
- CGTTCCTCTTGGGTTCTAACCTGTTGCCT (site CCTTCCTCTAG) — lower, 0.016
- CGTTCCTCTTGGGTTCTAACCTGTTGCCT (site CGTTCCTCTAG) — within 0.2 log units, 0.519
- CGTTCCTCTTGGGTTCTAACCTGTTGCCT (site CTTTCCTCTAG) — lower, 0.0942
- CTAAAAGCTTGGGTTCTAACCTGTTGCAA (site CTAAAAGCTTT) — within 0.2 log units, 0.501
- CTAAAAGCTTGGGTTCTAACCTGTTGCAA (site GGCTGTCCTAC) — higher, 0.628
- CTAAAGACTTGGGTTCTAACCTGTTGCAC (site CCAAAGACTAT) — lower, 0.0891
- CTAAAGACTTGGGTTCTAACCTGTTGCAC (site CTAAAGACTGT) — higher, 1.42
- CTAAATACTTGGGTTCTAACCTGTTGCCT (site CTAAATACTAG) — lower, 0.17
- CTAAATACTTGGGTTCTAACCTGTTGCCT (site CTAAATACTTA) — lower, 0.0116
- CTAAATACTTGGGTTCTAACCTGTTGCGT (site CTAAATACTAC) — higher, 1.54
- CTAAATACTTGGGTTCTAACCTGTTGCGT (site CTACATTCTAC) — lower, 0.00955
- CTAAGAACTTGGGTTCTAACCTGTTGCGT (site CTAAGAACTAA) — lower, 0.0418
- CTAAGAACTTGGGTTCTAACCTGTTGCGT (site CTAAGAACTAC) — higher, 2.1
- CTAAGAACTTGGGTTCTAACCTGTTGCGT (site CTAAGAACTAG) — within 0.2 log units, 0.264
- CTAAGAACTTGGGTTCTAACCTGTTGCGT (site CTAAGAACTAT) — higher, 0.615
- CTAAGCGCTTGGGTTCTAACCTGTTGCCA (site CTAAGAGCTTG) — lower, 0.145
- CTAAGCGCTTGGGTTCTAACCTGTTGCCA (site CTAAGCGCTTG) — higher, 0.647
- CTAAGCGCTTGGGTTCTAACCTGTTGCCA (site CTAAGGGCTTG) — within 0.2 log units, 0.205
- CTAAGCGCTTGGGTTCTAACCTGTTGCCA (site CTAAGTGCTTG) — lower, 0.0786
- CTAAGCTCTTGGGTTCTAACCTGTTGCTT (site CTAAGCTCTAA) — lower, 0.0662
- CTAAGCTCTTGGGTTCTAACCTGTTGCTT (site CTAAGCTCTCA) — lower, 0.133
- CTAAGCTCTTGGGTTCTAACCTGTTGCTT (site CTAAGCTCTGA) — lower, 0.0802
- CTAAGCTCTTGGGTTCTAACCTGTTGCTT (site CTAAGCTCTTA) — lower, 0.107
- CTAAGGCCTTGGGTTCTAACCTGTTGCCT (site CTAAAGCCTAG) — within 0.2 log units, 0.377
- CTAAGGCCTTGGGTTCTAACCTGTTGCCT (site CTAAGGCCTAG) — lower, 0.162
- CTAAGGTCTTGGGTTCTAACCTGTTGCTA (site CTAAGGTCTTA) — higher, 1.64
- CTAAGGTCTTGGGTTCTAACCTGTTGCTA (site TCTTTAGCTCT) — lower, 0.123
- CTAAGTGCTTGGGTTCTAACCTGTTGCCA (site CTAAGAGCTTG) — lower, 0.0354
- CTAAGTGCTTGGGTTCTAACCTGTTGCCA (site CTAAGCGCTTG) — lower, 0.0378
- CTAAGTGCTTGGGTTCTAACCTGTTGCCA (site CTAAGGGCTTG) — lower, 0.0841
- CTAAGTGCTTGGGTTCTAACCTGTTGCCA (site CTAAGTGCTTG) — within 0.2 log units, 0.35
- CTAATATCTTGGGTTCTAACCTGTTGCCA (site CTAATATCTTG) — lower, 0.0293
- CTAATATCTTGGGTTCTAACCTGTTGCCA (site CTCATATCTTG) — lower, 0.128
- CTAATGTCTTGGGTTCTAACCTGTTGCCA (site CTAATGTCTAG) — higher, 0.622
- CTAATGTCTTGGGTTCTAACCTGTTGCCA (site CTAATGTCTTG) — within 0.2 log units, 0.26
- CTAATTACTTGGGTTCTAACCTGTTGCAA (site CTAAGTACTCT) — lower, 0.0716
- CTAATTACTTGGGTTCTAACCTGTTGCAA (site CTAATTACTTT) — lower, 0.094
- CTACAAGCTTGGGTTCTAACCTGTTGCCT (site CTACAAGCTAG) — higher, 1.34
- CTACAAGCTTGGGTTCTAACCTGTTGCCT (site CTCCAAGCTAG) — within 0.2 log units, 0.279
- CTACAAGCTTGGGTTCTAACCTGTTGCCT (site CTGCAAGCTAG) — lower, 0.155
- CTACAAGCTTGGGTTCTAACCTGTTGCCT (site CTTCAAGCTAG) — lower, 0.177
- CTACAATCTTGGGTTCTAACCTGTTGCCT (site ATACAATCTAG) — lower, 0.0309
- CTACAATCTTGGGTTCTAACCTGTTGCCT (site CTACAATCTAG) — higher, 0.979
- CTACAATCTTGGGTTCTAACCTGTTGCCT (site GTACAATCTAG) — lower, 0.0211
- CTACAATCTTGGGTTCTAACCTGTTGCCT (site TTACAATCTAG) — lower, 0.0283
- CTACACACTTGGGTTCTAACCTGTTGCTC (site CTACACACTGA) — higher, 1.64
- CTACACACTTGGGTTCTAACCTGTTGCTC (site CTACACACTTA) — lower, 0.0402
- CTACAGACTTGGGTTCTAACCTGTTGCGA (site CTACAGACTAC) — lower, 0.0546
- CTACAGACTTGGGTTCTAACCTGTTGCGA (site CTACAGACTCC) — higher, 1.04
- CTACAGACTTGGGTTCTAACCTGTTGCGA (site CTACAGACTGC) — lower, 0.0716
- CTACAGACTTGGGTTCTAACCTGTTGCGA (site CTACAGACTTC) — higher, 2.73
- CTACAGACTTGGGTTCTAACCTGTTGCGC (site CTACAGACTAC) — within 0.2 log units, 0.253
- CTACAGACTTGGGTTCTAACCTGTTGCGC (site CTACAGACTCC) — within 0.2 log units, 0.221
- CTACAGACTTGGGTTCTAACCTGTTGCGC (site CTACAGACTGC) — higher, 1.21
- CTACAGACTTGGGTTCTAACCTGTTGCGC (site CTACAGACTTC) — within 0.2 log units, 0.503
- CTACAGACTTGGGTTCTAACCTGTTGCGG (site CTACAGACTAC) — lower, 0.088
- CTACAGACTTGGGTTCTAACCTGTTGCGG (site CTACAGACTCC) — higher, 2.61
- CTACAGACTTGGGTTCTAACCTGTTGCGG (site CTACAGACTGC) — lower, 0.141
- CTACAGACTTGGGTTCTAACCTGTTGCGG (site CTACAGACTTC) — higher, 1.31
- CTACAGACTTGGGTTCTAACCTGTTGCGT (site CTACAGACTAC) — higher, 1.81
- CTACAGACTTGGGTTCTAACCTGTTGCGT (site CTACAGACTCC) — within 0.2 log units, 0.229
- CTACAGACTTGGGTTCTAACCTGTTGCGT (site CTACAGACTGC) — lower, 0.155
- CTACAGACTTGGGTTCTAACCTGTTGCGT (site CTACAGACTTC) — within 0.2 log units, 0.238
- CTACATTCTTGGGTTCTAACCTGTTGCGT (site CTAAATACTAC) — lower, 0.0752
- CTACATTCTTGGGTTCTAACCTGTTGCGT (site CTACATTCTAC) — higher, 1.52
- CTACGATCTTGGGTTCTAACCTGTTGCAC (site CTACGATCTGT) — higher, 0.737
- CTACGATCTTGGGTTCTAACCTGTTGCAC (site CTACGCTCTGT) — lower, 0.162
- CTACGATCTTGGGTTCTAACCTGTTGCAC (site CTACGGTCTGT) — within 0.2 log units, 0.375
- CTACGATCTTGGGTTCTAACCTGTTGCAC (site CTACGTTCTGT) — within 0.2 log units, 0.365
- CTACGCTCTTGGGTTCTAACCTGTTGCGA (site CTACGCTCTTC) — higher, 1.52
- CTACGCTCTTGGGTTCTAACCTGTTGCGA (site CTAGGCTCTCC) — within 0.2 log units, 0.452
